Reference: PMC6151385, “Simultaneous Determination of Seven Phenolic Acids in Rat Plasma Using UHPLC-ESI-MS/MS after Oral Administration of Echinacea purpurea Extract” (Molecules : A Journal of Synthetic Chemistry and Natural …, 2017)

Experiments:
[1] = Pharmacokinetic study of seven phenolic acids in rat plasma after oral administration of E. purpurea extract (UHPLC-ESI-MS/MS); assay type: in vivo; conditions: male SD rats, oral E. purpurea extract 10 g/kg, n = 12, mean ± SD; for AUC(0-inf) / AUC(0-t) / Cmax / Tmax / half-life: Sprague-Dawley, rat
Experimental: Twelve male Sprague-Dawley (SD) rats (body weight 220 ± 20 g) were provided by Heilongjiang University of Chinese Medicine (Harbin, China). Each rat fasted 12 h before administration, with free drinking during the experiment. Blood samples were obtained from rats after oral administration of the extract of E. purpurea with a dose of 10 g/kg body weight. Blood samples (0.25 mL) of the retinal venous plexus were taken at 0.083, 0.25, 0.75, 1.0, 1.5, 2, 3, 4, 6, 8, 12, 24 and 36 h, then moved immediately into a 0.5 mL centrifuge tube that was spread with heparin at each time point. Meanwhile, the animal blood was centrifuged at 13,000 rpm for 5 min at 4 °C. The plasma was frozen in a −20 °C refrigerator in case of deterioration.
First, the frozen plasma was thawed at room temperature and then a liquid–liquid extraction (LLE) method was utilized. Then, a 100 μL aliquot of each plasma sample was removed except for the calibration standards which was mixed with 10 μL IS into a 10 mL glass tube. We continued by adding 100 μL methanol and 100 μL 30% formic acid, vortex-mixing for 1 min, then extracted 3 mL ethyl acetate, vortex-mixing for 3 min, centrifuged for 5 min (3500 rpm), and transferred the upper organic layer into a new tube. The layer of ethyl acetate was dried with a stream of nitrogen, the dry residue was dissolved with a 100 μL mobile phase, vortexed for 2 min and samples were filtered by a 0.22 μm microporous membrane. A 10 μL aliquot was injected into the UHPLC-ESI-MS/MS system.
The rat plasma concentration-time curves of seven compounds were plotted. After oral administration of E. purpurea extract in twelve rats, the maximum drug concentration in rat plasma (Cmax) and the time to reach maximum drug concentration (Tmax) were directly obtained from concentration-time data. The elimination rate constant (Ke) was calculated by linear regression of the terminal points in a semi-log plot of the plasma concentration against time. The elimination half-life (T1/2) was calculated by the formula T1/2 = 0.693/Ke. Other pharmacokinetic parameters including the area under the concentration-time curve (AUC0→t), and the area under the plasma concentration-time curve to time infinity (AUC0→∞) were calculated using non-compartmental pharmacokinetics analysis.

[2] = Stability of the analytes in rat plasma QC samples under different storage conditions; assay type: physicochemical; conditions: post-preparation samples, 12 h at 4 °C, n = 6
Experimental: The post-preparation samples were analyzed after storage for 12 h at 4 °C. The peak area ratio response of stability samples was determined and versus those freshly prepared. For all stability results, the analyzing samples were considered stable when the percentage of relative error (RE) was within ±15% compared with freshly prepared QC samples.

[3] = as above; assay type: physicochemical; conditions: n = 6; for Stability (RE%) Short-Term: 4 h at room temperature; for Stability (RE%) Freeze-Thaw: three freeze-thaw cycles (−20 °C / ambient); for Stability (RE%) Long-Term: −20 °C for 2 weeks

Row | AUC(0-inf) [1] [ng·h/mL] | AUC(0-t) [1] [ng·h/mL] | Cmax [1] [ng/mL] | Tmax [1] [h] | T1/2 [1] [h] | Stability (RE%) Post-Preparative ([2]; high QC) [%] | Stability (RE%) Post-Preparative ([2]; low QC) [%] | Stability (RE%) Post-Preparative ([2]; medium QC) [%] | Stability (RE%) Short-Term ([3]; high QC) [%] | Stability (RE%) Freeze-Thaw ([3]; high QC) [%] | Stability (RE%) Long-Term ([3]; high QC) [%] | Stability (RE%) Short-Term ([3]; low QC) [%] | Stability (RE%) Freeze-Thaw ([3]; low QC) [%] | Stability (RE%) Long-Term ([3]; low QC) [%] | Stability (RE%) Short-Term ([3]; medium QC) [%] | Stability (RE%) Freeze-Thaw ([3]; medium QC) [%] | Stability (RE%) Long-Term ([3]; medium QC) [%] | half-life [1] [h] | Compound
1 | 3440 ± 234 | 3140 ± 264 | 228 ± 11.9 | 0.75 | 8.89 ± 1.12 | −8.03 | 9.11 | −6.34 | 1.59 | 5.28 | −0.32 | 2.24 | −6.56 | 2.91 | −0.67 | 5.74 | −0.37 | – | COc1cc(C(=O)O)ccc1O [Vanillic acid, vanillic acid]
2 | 9330 ± 442 | 9220 ± 453 | 855 ± 35.9 | 8 | – | 9.83 | 10.35 | 3.89 | 6.12 | 6.15 | −1.54 | 7.45 | 7.79 | 6.01 | −0.16 | 2.18 | 1.00 | 5.31 ± 0.5 | O=C(O)/C=C/c1ccc(O)c(O)c1 [Caffeic acid, caffeic acid]
3 | 1950 ± 164 | 1650 ± 133 | 122 ± 16.4 | 1.54 ± 0.14 | – | −6.08 | −10.74 | −7.64 | −5.73 | −2.61 | −1.30 | −1.95 | −3.75 | −0.66 | −1.50 | 4.48 | −0.79 | 13.2 ± 1.66 | COc1cc(C(=O)O)cc(OC)c1O [Syringic acid, syringic acid]
4 | 3440 ± 218 | 3130 ± 156 | 293 ± 16.4 | 0.75 | – | 7.12 | 8.52 | 11.50 | −4.81 | −8.78 | −5.30 | −3.59 | −7.57 | −6.75 | 1.57 | −0.82 | −5.40 | 9.32 ± 1.29 | O=C(O)/C=C/c1ccc(O)cc1 [p-Coumaric acid, p-coumaric acid]
5 | 1950 ± 176 | 1640 ± 122 | 145 ± 11.6 | 1.96 ± 0.14 | – | 7.71 | −6.42 | 10.47 | −2.50 | −1.01 | 2.81 | 10.62 | 10.03 | −3.31 | −0.46 | 2.63 | 0.21 | 14.9 ± 5.37 | O=C(O)c1ccc(O)cc1 [4-Hydroxy benzoic acid, 4-hydroxybenzoic acid]
6 | 6020 ± 498 | 5620 ± 453 | 359 ± 43.8 | 8 | – | −4.91 | −0.89 | 4.84 | −8.77 | −13.12 | −1.89 | −4.21 | −7.10 | 7.93 | 4.61 | −3.80 | 6.80 | 8.48 ± 0.71 | COc1cc(/C=C/C(=O)O)ccc1O [Ferulic acid, ferulic acid]
7 | 2050 ± 116 | 1930 ± 123 | 127 ± 18.1 | 0.77 ± 0.07 | – | −4.01 | 9.29 | −5.47 | 4.80 | −0.52 | 3.65 | 2.03 | −0.11 | −2.93 | 10.18 | 6.57 | 2.30 | 7.45 ± 0.87 | O=C(O)c1ccc(O)c(O)c1 [3,4-Dihydroxy benzoic acid, 3,4-dihydroxybenzoic acid]
